From US20070117182A1, “Nucleic acids conferring transcriptional responsiveness on the RANKL gene promoter and uses thereof” (Wisconsin Alumni Research Foundation, priority 2005, published 2007)

Legend:
[1] = test system: RANKL; experiment: RT-PCR of RANKL in MG-63 cells; type: cell-based, human
Protocol: (§1) FIG. 14. […] Cells were treated with the indicated inducers for the periods identified and isolated RNA subjected to PCR analysis for Cyp24, RANKL and b-actin. B) 1,25(OH)2D3 induces VDR binding to the conserved D5 region of the human RANKL gene in MG-63 cells. […] Two different primer sets to the human D5 region were used to assess VDR binding. VDR binding was also observed at D3-D1 but not in intervening regions or at the TSS. C) The human D5 region is transcriptionally active in MG-63 cells. […] Luciferase activity was analysed 24 hours later. […] Data are the average of triplicate determinations, SEM.
The isolated RNA was then subjected to RT-PCR analysis using primers to a control gene (β-actin), a known vitamin D induced gene (Cyp24) and RANKL. […] These and additional data using other hormonal regulators are identical to that observed in mouse cells and it therefore appears likely that human RANKL is regulated in a fashion similar to that in mouse.

[2] = test system: RANKL gene upstream regions D1-D5; experiment: ChIP analysis of transcription factor binding to the RANKL gene in ST2 cells; type: cell-based, mouse; settings: 6 hours
Protocol: FIG. 4. Confirmation of ChIP/chip data using ChIP. A) Linear arrangement of RANKL locus re-oriented 5′ to 3′ (left to right) indicating the positions of D5 to D1, P2, and P1/TSS. Designation of primer sets used for detection in ChIP is indicated. B) ST2 cells were treated with either vehicle or 1,25(OH)2D3 and then subjected to ChIP using antibodies to VDR, RXR or IgG. Precipitated DNA was evaluated using the primer sets identified in A.
FIG. 5. […] ST2 cells were treated with the above hormones and after 6 hours subjected to ChIP analysis using antibodies to VDR, RXR, GR, C/EBP, β, RNA pol II, and IgG. Precipitated DNA was evaluated for enrichment of the indicated regions of the RANKL gene.
FIG. 10. ChIP analysis of transcription factor binding to RL D5, the TSS and intervening regions of the RANKL locus in response to 1,25(OH)2D3, forskolin and oncostatin M (OSM). ST2 cells were treated for 6 hr with the indicated inducing agents and then subjected to ChIP analysis using antibodies to the indicated factors. Precipitated DNA was analyzed by PCR for enrichment of IS7, D5, IS6 and the TSS of the RANKL gene locus. See text for details of results.
The isolated DNA was then evaluated by PCR using primers as depicted in the diagram seen in FIG. 4a which were designed to amplify small DNA segments within the 5 regions as well as segments located at intervening sites (IS) outside the five regions.
The inventors hypothesized that GC's might perhaps enhance VDR binding to RANKL regulatory regions. […] The inventors focused on the RL-CCL region (D5) and amplified the precipitated DNA using primers to this region of the gene as well as to D4, D3 and TSS and intervening regions. […] The inventors also explored the possibility that C/EBPbeta might similarly participate in the RANKL activation process. C/EBPbeta plays a significant role in the regulation of osteoblastic genes, and is found associated with both 1,25(OH)2D3 and GC target genes.
In addition to 1,25(OH)2D3 and GCs, RANKL expression is also known to be modulated by such factors as PTH, PGE2, the gp130-activating cytokines IL-6 and OSM, as well as IL-1beta and TNFalpha. […] Forskolin was used as substitute for PTH, however, as ST2 cells are deficient in PTH receptor (PTHR). Both PTH/forskolin and PGE2 are known to induce RANKL gene expression via CREB whereas OSM functions via Stat3. […] The inventors therefore explored the possibility that the RL-CCL might represent a focal target for these inducers via either CREB or Stat3 in the RANKL gene locus. ST2 cells were treated with either vehicle, 1,25(OH)2D3, forskolin or OSM for a 6 hour period and then subjected to a ChIP analysis using antibodies to VDR, C/EBPbeta, CREB, phospho-CREB, ATF-2, ATF-4, Stat3, RNA pol II and control IgG. Isolated DNA was then subjected to amplification using primers corresponding to the D5 region (RL-CCL) of the RANKL gene. As controls, the inventors also assessed the extent to which the immunoprecipitations led to the enrichment of DNA at sites surrounding the D5 region of the RANKL gene.

[3] = test system: D5 region of the human RANKL gene; experiment: ChIP analysis of the D5 region of the human RANKL gene in MG-63 cells; type: cell-based
Protocol: as §1
Input represents DNA abundance prior to precipitation with either antibodies to the VDR or non specific IgG.

[4] = test system: Cyp24 promoter; experiment: ChIP of VDR/RXR at Cyp24 promoter in ST2 cells; type: cell-based, mouse; settings: 10^-7 M, 6 hours
Protocol: FIG. 3. ChIP/chip analysis of the RANKL gene locus. A) ChIP: ST2 cells were treated with either vehicle or 1,25(OH)2D3 (10^−7 M) and after 6 hours subjected to ChIP using antibodies to VDR, RXR and IgG. Precipitated DNA was analyzed for the presence of either the Cyp24 or the OPN promoter. B) Arrangement of the mouse RANKL gene locus and position of flanking genes. RANKL gene is transcribed on the reverse strand (right to left). C) DNA chip: Precipitated DNA was linearly amplified and then subjected to chip analysis using tiled oligonucleotide arrays containing 50-mers spanning the RANKL gene locus as described in the text. Hybridization data derived from the arrays are indicated in log2 scale across the locus with nucleotide positions on chromosome 14 indicated on the X axis. The first set of two arrays provide linear data comparing IgG (±1,25(OH)2D3) and VDR (±1,25(OH)2D3) over the RANKL upstream regions. The second set of three arrays provides an expanded view of hybridization data comparing VDR (±1,25(OH)2D3), VDR (+1,25(OH)2D3 vs input DNA) and RXR (+1,25(OH)2D3 vs input DNA). VDR/RXR binding regions D1-D5 are tracked by the shading.
As a first step, the inventors treated ST2 cells with either vehicle or 1,25(OH)2D3 for 6 hours, fixed the cells with formalin, and then subjected the cell lysates to ChIP analysis using antibodies to VDR, RXR, and an IgG control. […]

SMILES: C=C1/C(=C\C=C2/CCC[C@]3(C)[C@@H]([C@H](C)CCCC(C)(C)O)CC[C@@H]23)C[C@@H](O)C[C@@H]1O [1,25(OH)2D3]
- RANKL expression (RT-PCR) [1]: upregulated
- CREB binding to the D5 region [2]: modestly increased CREB association
- RNA pol II recruitment to D1-D5 sites and TSS [2]: recruited
- Stat3 binding to the D5 region [2]: some Stat3 binding can be seen
- VDR and RXR binding at D1-D5 ([2]; ChIP, -16, -22, -60, -69, -77 kb from TSS): clearly enriched
- VDR binding to RANKL regulatory regions (D5) ([2]; agent alone): induced the binding of the VDR
- RXR binding to the D5 region of the human RANKL gene [3]: also induced to bind
- VDR binding to the D5 region of the human RANKL gene [3]: induced
- abundance of Cyp24 promoter DNA precipitated with VDR and RXR antibodies [4]: clearly increased the abundance of DNA
